Experimental data: paper PMC6356299, “Design and Synthesis of a Chitodisaccharide-Based Affinity Resin for Chitosanases Purification” (Marine Drugs, 2019)
Values after ≈ are worked out from the molar mass of the structure shown.

Each molecule was assayed against T1, CsnOU01 (GH family 46 chitosanase) (Microbacterium sp. OU01, UniProt A7KBW5) (assay: equilibrium adsorption to ligand-coupled Sepharose 6B, Scatchard analysis). Conditions: compound immobilised on Sepharose 6B via cyanuric chloride spacer (not the free sugar); Kd in mass concentration of enzyme; 20 mM Tris-HCl, pH 8.0.
T1 construct: about 28 kDa
T1 sequence (A7KBW5 26-266): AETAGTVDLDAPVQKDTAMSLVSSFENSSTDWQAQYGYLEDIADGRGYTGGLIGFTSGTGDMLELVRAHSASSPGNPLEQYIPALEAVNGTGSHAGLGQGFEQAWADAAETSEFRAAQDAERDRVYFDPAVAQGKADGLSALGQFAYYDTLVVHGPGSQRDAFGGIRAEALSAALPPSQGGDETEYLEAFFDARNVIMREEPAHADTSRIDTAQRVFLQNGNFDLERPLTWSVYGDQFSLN
Assay type: binding
Excerpt: equilibrium adsorption to ligand-coupled Sepharose 6B, Scatchard analysis on CsnOU01 (GH family 46 chitosanase)

| Molecule | Kd [µg/mL] |
| --- | --- |
| chitotrisaccharide [CHTS] | 20.7 |
| N[C@H]1[C@H](O[C@H]2[C@H](O)[C@@H](N)C(O)O[C@@H]2CO)O[C@H](CO)[C@@H](O)[C@@H]1O (stereo partly drawn) [CHDS, chitodisaccharide] | 16.4 (≈ 48.2 µM) |
| glucosamine | 88.5 |
